Experiments:
human VMAT2 = human VMAT2 (Homo sapiens (Human), UniProt Q05940); experiment: VMAT2 radioligand binding, 3H-dihydrotetrabenazine competition on human platelet homogenate; conditions: 10 nM 3H-dihydrotetrabenazine, human platelet homogenate, 25° C., 90 minutes; read-out: VMAT2 Ki
In short: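 Human platelet homogenate (30 μg membrane protein/well) in DPBS with 1 mM EDTA, pH 7.4; twelve test-compound concentrations competed against 10 nM ³H-dihydrotetrabenazine. Incubated 90 min at 25 °C, bound radioligand collected by filtration on PEI-pretreated glass-fibre filters and counted by scintillation; Ki derived.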

[1] = Stability of compounds in human liver microsomes; type: in vitro ADME; conditions: for CLint scaled at 0.5 μM / half-life at 0.5 μM: both sexes, pH 7.4; for CLint scaled at 0.5 μM: liver microsomes, calculated from HLM half-life, read-out: HLM Scaled Intrinsic Clearance; for CLint scaled at 0.5 μM / Predicted Max. Bioavailability (% F) / HLM Predicted Systemic Clearance: human; for half-life at 0.5 μM: 0.5 μM compound, 0.5 mg/mL human liver microsomes, 37° C., maxed at 420 minutes, read-out: HLM Elimination half-life (t1/2, min); for Predicted Max. Bioavailability (% F): predicted from HLM data; for HLM Predicted Systemic Clearance: scaled from HLM half-life (Obach method)
In short: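 Compound at 0.5 μM incubated at 37 °C with pooled mixed-gender human liver microsomes (0.5 mg/mL protein) and an NADPH-generating system in pH 7.4 phosphate buffer, sampled 0–60 min. Parent depletion tracked by LC-MS/MS; t1/2 derived from the slope by non-linear regression, with predicted extraction ratio and maximum bioavailability also calculated.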

human VMAT2, sequence (Q05940 whole entry): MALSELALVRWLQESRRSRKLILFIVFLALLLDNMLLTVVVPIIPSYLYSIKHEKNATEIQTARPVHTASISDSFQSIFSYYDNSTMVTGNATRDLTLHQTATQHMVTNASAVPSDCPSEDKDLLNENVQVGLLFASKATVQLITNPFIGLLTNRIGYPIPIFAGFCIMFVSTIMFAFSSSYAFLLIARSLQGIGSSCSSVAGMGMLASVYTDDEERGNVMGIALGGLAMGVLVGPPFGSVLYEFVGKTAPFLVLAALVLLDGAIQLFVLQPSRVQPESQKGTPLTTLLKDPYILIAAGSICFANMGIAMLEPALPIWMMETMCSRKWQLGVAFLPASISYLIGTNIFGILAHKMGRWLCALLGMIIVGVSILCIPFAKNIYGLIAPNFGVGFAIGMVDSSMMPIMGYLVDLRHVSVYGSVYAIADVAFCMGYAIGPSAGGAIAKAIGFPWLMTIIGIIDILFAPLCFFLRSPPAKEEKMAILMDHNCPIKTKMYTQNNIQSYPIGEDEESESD

| Structure (SMILES) | Ki (human VMAT2) [nM] | CLint scaled at 0.5 μM [1] [L/h/kg] | half-life at 0.5 μM [1] [min] | Predicted Max. Bioavailability (% F) [1] [% F] | HLM Predicted Systemic Clearance [1] [L/h/kg] |
| --- | --- | --- | --- | --- | --- |
| CC[C@@H]1C[C@H]1COc1cc2c(cc1OC)[C@H]1C[C@@H](O)[C@H](CC(C)(C)C)CN1CC2 [Compound 4-90, (2R,3R,11bR)-3-(2,2-dimethylpropyl)-9-{[(1R,2R)-2-ethylcyclopropyl]methoxy}-10-methoxy-1H,2H,3H,4H,6H,7H,11bH-pyrido[2,1-a]isoquinolin-2-ol] | 0.29 | 9.34 | 8 | 11 | 1.063 |
| COc1cc2c(cc1OC[C@@H](C)OC)CCN1C[C@@H](CC(C)(C)C)[C@H](O)C[C@H]21 [Compound 4-91, (2R,3R,11bR)-3-(2,2-dimethylpropyl)-10-methoxy-9-[(2R)-2-methoxypropoxy]-1H,2H,3H,4H,6H,7H,11bH-pyrido[2,1-a]isoquinolin-2-ol] | 28 | 1.18 | 63 | 50 | 0.595 |
| COc1cc2c(cc1OC[C@H](C)OC)CCN1C[C@@H](CC(C)(C)C)[C@H](O)C[C@H]21 [Compound 4-92, (2R,3R,11bR)-3-(2,2-dimethylpropyl)-10-methoxy-9-[(2S)-2-methoxypropoxy]-1H,2H,3H,4H,6H,7H,11bH-pyrido[2,1-a]isoquinolin-2-ol] | 51 | 1.53 | 49 | 44 | 0.672 |
| COc1cc2c(cc1OC[C@H](C)O)CCN1C[C@@H](CC(C)(C)C)[C@H](O)C[C@H]21 [Compound 4-114, (2R,3R,11bR)-3-(2,2-dimethylpropyl)-9-[(2S)-2-hydroxypropoxy]-10-methoxy-1H,2H,3H,4H,6H,7H,11bH-pyrido[2,1-a]isoquinolin-2-ol] | 70 | ≤ 0.178 | ≥ 420 | ≥87 | ≤0.155 |
| COc1cc2c(cc1OCCCCC(F)(F)F)CCN1C[C@@H](CC(C)(C)C)[C@H](O)C[C@H]21 [Compound 4-115, (2R,3R,11bR)-3-(2,2-dimethylpropyl)-10-methoxy-9-[(5,5,5-trifluoropentyl)oxy]-1H,2H,3H,4H,6H,7H,11bH-pyrido[2,1-a]isoquinolin-2-ol] | 6.1 | 0.563 | 133 | 68 | 0.383 |
| COc1cc2c(cc1OCc1cccc(C#N)c1)CCN1C[C@@H](CC(C)(C)C)[C@H](O)C[C@H]21 [Compound 4-116, 3-({[(2R,3R,11bR)-3-(2,2-dimethylpropyl)-2-hydroxy-10-methoxy-1H,2H,3H,4H,6H,7H,11bH-pyrido[2,1-a]isoquinolin-9-yl]oxy}methyl)benzonitrile] | 56 | 1.31 | 57 | 48 | 0.6264 |
| COc1cc2c(cc1OCCc1ccc(F)cc1)CCN1C[C@@H](CC(C)(C)C)[C@H](O)C[C@H]21 [Compound 4-117, (2R,3R,11bR)-3-(2,2-dimethylpropyl)-9-[2-(4-fluorophenyl)ethoxy]-10-methoxy-1H,2H,3H,4H,6H,7H,11bH-pyrido[2,1-a]isoquinolin-2-ol] | 2.2 | 6.74 | 11 | 15 | 1.019 |
| COc1cc2c(cc1OCC1(F)CC1)CCN1C[C@@H](CC(C)(C)C)[C@@H](O)C[C@H]21 [Compound 4-118, (2S,3R,11bR)-3-(2,2-dimethylpropyl)-9-[(1-fluorocyclopropyl)methoxy]-10-methoxy-1H,2H,3H,4H,6H,7H,11bH-pyrido[2,1-a]isoquinolin-2-ol] | 13 | 0.396 | 189 | 75 | 0.298 |
| COc1cc2c(cc1OCC1CCC1)CCN1C[C@@H](CC(C)(C)C)[C@H](O)C[C@H]21 [Compound 4-119, (2R,3R,11bR)-9-(cyclobutylmethoxy)-3-(2,2-dimethylpropyl)-10-methoxy-1H,2H,3H,4H,6H,7H,11bH-pyrido[2,1-a]isoquinolin-2-ol] | 0.29 | 8.03 | 9 | 13.00 | 1.04 |
| COc1cc2c(cc1OCCCC(F)(F)F)CCN1C[C@@H](CC(C)(C)C)[C@H](O)C[C@H]21 [Compound 4-120, (2R,3R,11bR)-3-(2,2-dimethylpropyl)-10-methoxy-9-(4,4,4-trifluorobutoxy)-1H,2H,3H,4H,6H,7H,11bH-pyrido[2,1-a]isoquinolin-2-ol] | 1.5 | ≤ 0.178 | ≥ 420 | ≥87 | ≤0.155 |
| COc1cc2c(cc1OCC1CC1(F)F)CCN1C[C@@H](CC(C)(C)C)[C@H](O)C[C@H]21 (stereo partly drawn) [Compound 4-121, (2R,3R,11bR)-9-[(2,2-difluorocyclopropyl)methoxy]-3-(2,2-dimethylpropyl)-10-methoxy-1H,2H,3H,4H,6H,7H,11bH-pyrido[2,1-a]isoquinolin-2-ol] | 0.82 | 0.268 | 280 | 82 | 0.218 |
| COc1cc2c(cc1OC)[C@H]1C[C@@H](O)[C@H](CC(C)(C)C)CN1CC2 [Compound 5-1, (2R,3R,11bR)-3-(2,2-dimethylpropyl)-9,10-dimethoxy-1H,2H,3H,4H,6H,7H,11bH-pyrido[2,1-a]isoquinolin-2-ol] | 6.6 | 0.938 | 80 | 56 | 0.526 |
| COc1cc2c(cc1OC)[C@H]1C[C@H](O)[C@H](CC(C)(C)C)CN1CC2 [Compound 5-2, (2S,3R,11bR)-3-(2,2-dimethylpropyl)-9,10-dimethoxy-1H,2H,3H,4H,6H,7H,11bH-pyrido[2,1-a]isoquinolin-2-ol] | 50 | 1.95 | 38 | 38 | 0.7434 |

Source: patent US11718618B2, “Substituted pyrido[2,1-a]isoquinolines as VMAT2 inhibitors” (priority 2021, dated 2023)
